Assay results from US20250186627A1, “RADIOLABELED COMPOUNDS TARGETING THE PROSTATE-SPECIFIC MEMBRANE ANTIGEN” (PROVINCIAL HEALTH SERVICES AUTHORITY, priority 2022, published 2025).

System: NRG-mice bearing LNCaP tumors
Assay: Biodistribution (and PET/SPECT imaging) in NRG-mice bearing LNCaP tumors
Type: in vivo
Conditions: Avg
Outline: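 LNCaP xenografts (~10 million cells, left dorsal flank) grown 4-6 weeks to 200-600 mm^3 in NRG mice. Tail-vein injection of 4-6 MBq ^68Ga or 18.5 MBq ^177Lu tracer under isoflurane; CT then 10-min static PET or 1-h SPECT. Biodistribution by gamma counting of weighed organs, expressed as %ID/g.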

## COc1ccc(CCCC(=O)NCC(=O)NC(CCCCNC(=O)CN2CCN(CC(=O)[O-])CCN(CC(=O)[O-])CCN(CC(=O)[O-])CC2)CC(=O)NCC2CCC(C(=O)NC(Cc3c4ccccc4cc4ccccc34)C(=O)NCCCCC(NC(=O)NC(CC(F)C(=O)O)C(=O)O)C(=O)O)CC2)cc1.[177Lu+3] (stereo not drawn) [^177Lu-CCZ02019]
3 h p.i.
  Biodistribution: Adrenal gland: 2.79 % ID/g
  Biodistribution: Blood: 11.22 % ID/g
  Biodistribution: Bone: 1.03 % ID/g
  Biodistribution: Brain: 0.18 % ID/g
  Biodistribution: Fat: 1.91 % ID/g
  Biodistribution: Heart: 2.52 % ID/g
  Biodistribution: Intestine: 0.98 % ID/g
  Biodistribution: LNCaP tumor: 50.23 % ID/g
  Biodistribution: Lacrimal gland: 0.39 % ID/g
  Biodistribution: Liver: 2.18 % ID/g
  Biodistribution: Lungs: 5.22 % ID/g
  Biodistribution: Muscle: 0.87 % ID/g
  Biodistribution: Pancreas: 1.07 % ID/g
  Biodistribution: Salivary gland: 1.92 % ID/g
  Biodistribution: Seminal gland: 0.59 % ID/g
  Biodistribution: Spleen: 1.53 % ID/g
  Biodistribution: Stomach: 0.58 % ID/g
  Biodistribution: Testes: 2.55 % ID/g
  Biodistribution: Thyroid: 2.44 % ID/g
  Biodistribution: Urine: 180.95 % ID/g
  Biodistribution: kidney: 10.42 % ID/g
24 h p.i.
  Biodistribution: Adrenal gland: 0.54 % ID/g
  Biodistribution: Blood: 0.70 % ID/g
  Biodistribution: Bone: 0.18 % ID/g
  Biodistribution: Brain: 0.03 % ID/g
  Biodistribution: Fat: 0.33 % ID/g
  Biodistribution: Heart: 0.37 % ID/g
  Biodistribution: Intestine: 0.23 % ID/g
  Biodistribution: LNCaP tumor: 55.39 % ID/g
  Biodistribution: Lacrimal gland: 0.00 % ID/g
  Biodistribution: Liver: 0.48 % ID/g
  Biodistribution: Lungs: 0.65 % ID/g
  Biodistribution: Muscle: 0.11 % ID/g
  Biodistribution: Pancreas: 0.17 % ID/g
  Biodistribution: Salivary gland: 0.56 % ID/g
  Biodistribution: Seminal gland: 0.23 % ID/g
  Biodistribution: Spleen: 0.37 % ID/g
  Biodistribution: Stomach: 0.73 % ID/g
  Biodistribution: Testes: 0.37 % ID/g
  Biodistribution: Thyroid: 0.52 % ID/g
  Biodistribution: Urine: 8.42 % ID/g
  Biodistribution: kidney: 4.02 % ID/g
72 h p.i.
  Biodistribution: Adrenal gland: 0.53 % ID/g
  Biodistribution: Blood: 0.13 % ID/g
  Biodistribution: Bone: 0.05 % ID/g
  Biodistribution: Brain: 0.01 % ID/g
  Biodistribution: Fat: 0.16 % ID/g
  Biodistribution: Heart: 0.18 % ID/g
  Biodistribution: Intestine: 0.08 % ID/g
  Biodistribution: LNCaP tumor: 45.10 % ID/g
  Biodistribution: Lacrimal gland: 0.00 % ID/g
  Biodistribution: Liver: 0.29 % ID/g
  Biodistribution: Lungs: 0.41 % ID/g
  Biodistribution: Muscle: 0.04 % ID/g
  Biodistribution: Pancreas: 0.09 % ID/g
  Biodistribution: Salivary gland: 0.27 % ID/g
  Biodistribution: Seminal gland: 0.06 % ID/g
  Biodistribution: Spleen: 0.45 % ID/g
  Biodistribution: Stomach: 0.15 % ID/g
  Biodistribution: Testes: 0.39 % ID/g
  Biodistribution: Thyroid: 0.37 % ID/g
  Biodistribution: Urine: 1.12 % ID/g
  Biodistribution: kidney: 1.84 % ID/g
144 h p.i.
  Biodistribution: Adrenal gland: 0.31 % ID/g
  Biodistribution: Blood: 0.04 % ID/g
  Biodistribution: Bone: 0.04 % ID/g
  Biodistribution: Brain: 0.01 % ID/g
  Biodistribution: Fat: 0.11 % ID/g
  Biodistribution: Heart: 0.13 % ID/g
  Biodistribution: Intestine: 0.03 % ID/g
  Biodistribution: LNCaP tumor: 40.77 % ID/g
  Biodistribution: Lacrimal gland: 0.00 % ID/g
  Biodistribution: Liver: 0.19 % ID/g
  Biodistribution: Lungs: 0.93 % ID/g
  Biodistribution: Muscle: 0.03 % ID/g
  Biodistribution: Pancreas: 0.06 % ID/g
  Biodistribution: Salivary gland: 0.34 % ID/g
  Biodistribution: Seminal gland: 0.03 % ID/g
  Biodistribution: Spleen: 0.51 % ID/g
  Biodistribution: Stomach: 0.03 % ID/g
  Biodistribution: Testes: 0.33 % ID/g
  Biodistribution: Thyroid: 0.28 % ID/g
  Biodistribution: Urine: 0.84 % ID/g
  Biodistribution: kidney: 1.10 % ID/g
240 h p.i.
  Biodistribution: Adrenal gland: 0.11 % ID/g
  Biodistribution: Blood: 0.01 % ID/g
  Biodistribution: Bone: 0.00 % ID/g
  Biodistribution: Brain: 0.00 % ID/g
  Biodistribution: Fat: 0.06 % ID/g
  Biodistribution: Heart: 0.05 % ID/g
  Biodistribution: Intestine: 0.02 % ID/g
  Biodistribution: LNCaP tumor: 25.30 % ID/g
  Biodistribution: Lacrimal gland: 0.00 % ID/g
  Biodistribution: Liver: 0.15 % ID/g
  Biodistribution: Lungs: 0.09 % ID/g
  Biodistribution: Muscle: 0.01 % ID/g
  Biodistribution: Pancreas: 0.03 % ID/g
  Biodistribution: Salivary gland: 0.10 % ID/g
  Biodistribution: Seminal gland: 0.01 % ID/g
  Biodistribution: Spleen: 0.46 % ID/g
  Biodistribution: Stomach: 0.02 % ID/g
  Biodistribution: Testes: 0.16 % ID/g
  Biodistribution: Thyroid: 0.12 % ID/g
  Biodistribution: Urine: 0.37 % ID/g
  Biodistribution: kidney: 0.52 % ID/g
